Counter-ions that a name gives are not always drawn. Like-named read-outs stand apart in the source and are kept apart here.
Tests used:
R17 [1] = experiment: R17 inactivation at constant concentration, varying doses of UV light; type: cell-based, bacteriophage R17; details: UV doses 1.0 to 3.0 J/cm^2, FIGS. 11-17
Method: Compounds of the present invention were also tested at a constant concentration for varying doses of UV light. Three sets of 1.5 mL tubes were prepared containing 0.6 mL aliquots of R17 in DMEM (prepared as described above). The compound tested was added at the desired concentration and the samples were vortexed. The samples were then irradiated at intervals of 1.0 J/cm^2, until 3.0 J/cm^2 was reached. Between each 1.0 J/cm^2 interval, 100 μL was removed from each sample and placed in the first corresponding dilution tube, then five sequential dilutions were performed for each compound tested, at all 3 irradiation doses, as described above in this example.
Then 50 μL of Hfr 3000 bacteria was added to each tube, 3 mL of top agar was added and the tube contents were vortexed. The contents of each tube was poured into its own LB plate and the plates were incubated overnight at 37° C. Plaques were counted by visual inspection the following morning.

cell-free virus (HIV) = type: cell-based; details: for HIV Log Kill 16 μM / HIV Log Kill 32 μM / HIV Log Kill 64 μM: 1 minute irradiation; for HIV inactivation activity compared with AMT: concentrations of 64 μM of compound or higher
Method: Pathogen inactivation efficiency of several compounds of the present invention was evaluated by examining the ability of the compounds to inactivate cell-free virus (HIV). Inactivation of cell-free HIV was performed as follows.
As in the R17 assay, small aliquots of the compounds listed in TABLES 8 and 9, below, at the concentrations listed in the table, were added to stock HIV-1 to a total of 0.5 mL. The stock HIV (10^5-10^7 plaque forming units/mL) was in DMEM/15% FBS. […] Controls included HIV-1 stock only, HIV-1 plus UVA only, and HIV-1 plus the highest concentration of each psoralen tested, with no UVA. Post irradiation, all samples were stores frozen at −70° C. until assayed for infectivity by a microtiter plaque assay. Aliquots for measurement of residual HIV infectivity in the samples treated with a compound of the present invention were withdrawn and cultured.
Residual HIV infectivity was assayed using an MT-2 infectivity assay. […] The assay medium was 85% DMEM (with a high glucose concentration) containing 100 μg of streptomycin, 100 U of penicillin, 50 μg of gentamicin, and 1 μg of amphotericin B per mL, 15% FBS and 2 μg of Polybrene (Sigma Chemical Co., St. Louis, Mo.) per mL. Test and control samples from the inactivation procedure were diluted in 50% assay medium and 50% normal human pooled plasma. The samples were serially diluted directly in 96-well plates (Corning Glass Works, corning, N.Y.). The plates were mixed on an oscillatory shaker for 30 seconds and incubated at 37° C. in a 5% CO2 atmosphere for 1 to 18 hours. […] After an additional 1 hour of incubation at 37° C. in 5% CO2, 0.075 mL of assay medium containing 1.6% SeaPlaque agarose (FMC Bioproducts, Rockland, me.) and prewarmed to 38.5° C. was added to each well. The plates were kept at 37° C. for a few minutes until several plates had accumulated and then centrifuged in plate carriers at 600×g for 20 minutes in a centrifuge precooled to 10° C. In the centrifuge, cell monolayers formed prior to gelling of the agarose layer. The plates were incubated for 5 days at 37° C. in 5% CO2 and stained by the addition of 0.05 mL of 50 μg/mL propidium iodide (Sigma Chemical Co.) in phosphate-buffered saline (pH 7.4) to each well. After 24 to 48 hours, the red fluorescence-stained microplaques were visualized by placing the plates on an 8,000 μW/cm^2 304 nm UV light box (Fotodyne, Inc., New Berlin, Wis.). The plaques were counted at a magnification of ×20 to ×25 through a stereomicroscope. “n” represents the number of runs for which the data point is an average.

R17 [2] = experiment: R17 bacteriophage inactivation screen, varying compound concentration; type: cell-based; details: for R17 Log Kill 8 uM / R17 Log Kill 16 uM / R17 Log Kill 32 uM: Table 5, starting titer approx. 7.2 logs
Method: The assay used to predict pathogen inactivation efficiency and to determine nucleic acid binding of the photoreactive binding compounds of the present invention was that in which a bacteriophage, R17, in solution with the desired substrate was irradiated. The ability of the phage to subsequently infect bacteria and inhibit their growth was measured. The bacteriophage was selected for its relatively accessible nucleic acid such that the culture growth inhibition would accurately reflect nucleic acid damage by the test compounds. The bacteriophage assay for nucleic acid binding to test compounds offers a safe and inexpensive procedure to identify compounds likely to display efficient pathogen inactivation. […] An aliquot (0.5 mL) was transferred to a 1.5 mL, snap-top polyethylene tube. An aliquot (0.004-0.040 mL) of the test compound stock solution prepared in water, ethanol or dimethylsulfoxide at 0.80-8.0 mM was added to the tube. Compounds were tested at concentrations between 4 μM and 320 μM. (AMT is commercially available from HRI, Inc., Concord, Calif.; 8-MOP is commercially available from Sigma, St. Louis, Mo.). The tubes were placed in a light device as described in EXAMPLE 1 and irradiated for between 1 and 10 minutes. […] To make the dilutions, a 0.100 mL aliquot of the irradiated solution of phage and test compound was added to the first dilution tube of 0.4 mL of media then 0.020 mL of this solution was added to the second tube of 0.5 mL medium (1:25). The second solution was then diluted serially (1:25) into the remaining tubes. […] After the top agar hardened, the plates were incubated at 37° C. overnight. The plaque forming units were then counted the following morning and the titer of the phage remaining after phototreatment was calculated based on the dilution factors. The following controls were run: the “phage only” in which phage was not treated with test compound and not irradiated (listed as “starting titer” in the tables below); the “UV only” in which the phage was irradiated in the absence of test compound; and the “dark” control in which the phage/test compound solution was not irradiated before it was diluted and plated.

[3] = system: Salmonella tester strains; experiment: Ames assay, dark mutagenicity, overall over tester strains; details: two-fold or greater increase in revertants above background and dose dependent response
Method: (§1) In this example the compounds of the present invention are tested for their dark mutagenicity using an Ames assay. The procedures used for the Salmonella mutagenicity test as described in detail by Maron and Ames were followed exactly. Maron, D. M. and B. N. Ames, Mutation Research 113:173 (1983). A brief description for each procedure is given here. The tester strains TA97a, TA98, TA100, TA102, TA1537 and TA1538 were obtained from Dr. Ames. TA97a, TA98, TA1537 and TA1538 are frameshift tester strains. TA100 and TA102 are base-substitution tester strains. Upon receipt each strain was cultured under a variety of conditions to confirm the genotypes specific to the strains.
(§2) The first tests done with the strains were to determine the range of spontaneous reversion for each of the strains. With each mutagenicity experiment the spontaneous reversion of the tester strains to histidine independence was measured and expressed as the number of spontaneous revertants per plate. This served as the background controls.
(§3) For all experiments, the pre-incubation procedure was used. In this procedure one vial of each tester strain was thawed and 20 μL of this culture was added to 6 mL of Oxoid Nutrient Broth #2. This solution was allowed to shake for 10 hours at 37° C. In the pre-incubation procedure, 0.1 mL of this overnight culture was added to each of the required number of sterile test tubes. To half of the tubes 0.5 mL of a 10% S-9 solution containing Aroclor 1254 induced rat liver extract (Molecular Toxicology Inc., Annapolis, MD), and MgCl2, KCl, glucose-6-phosphate, NADP, and sodium phosphate buffer (Sigma, St. Louis. Mo.) were added. To the other half of the tubes 0.5 mL of 0.2M sodium phospate buffer, pH 7.4, was used in place of the S-9 mixture (the -S9 samples) Finally 0.1 mL of the test solution containing either 0.0.1, 0.5, 1, 5, 10, 50, 100, 250, or 500 μg/mL of the test compound was added. The 0.7 mL mixture pre-incubated while shaking for 20 minutes at 37° C. After shaking, 2 mL of molten top agar supplemented with histidine and biotin were added to the 0.7 mL mixture and immediately poured onto a minimal glucose agar plate (volume of base agar was 20 ml.). The top agar was allowed 30 minutes to solidify and then the plates were inverted and incubated for 44 hours at 37° C. After incubation the number of revertant colonies on each plate were counted. […] (“n” represents the number of replicates performed for each data point.)
(§4) Maron and Ames (1983) describe the conflicting views with regard to the statistical treatment of data generated from the test.

TA1537 = experiment: Ames assay, dark mutagenicity, strain TA1537; details: TA1537 −S9; 10 μg/plt
Method: as §1, §2, §3, §4

TA100 = system: TA100
Method: as §1, §2, §3, §4

TA1538 = experiment: Ames assay, dark mutagenicity, strain TA1538; details: TA1538; in the presence of S9
Method: as §1, §2, §3, §4

[4] = Table 8, HIV starting titer approximately 5 logs
[5] = Table 6, 1 minute irradiation = 1.2 J/cm^2, starting titer approx. 7.1 logs
[6] = Table 9, HIV starting titer approximately 5.4 logs
[7] = Table 7, 1 minute irradiation, starting titer approx. 7.1 logs

Cc1oc2c(C)c3oc(=O)cc(C)c3cc2c1CNCCCNCCCCNCCCN.Cl.Cl.Cl.Cl [Compound 15, 4′-(14-Amino-2,6,11-triaza)tetradecyl-4,5′,8-trimethylpsoralen Tetrahydrochloride]
R17 inactivation compared with AMT (R17 [1]): more efficient at inactivating R17 than was AMT

Cc1oc2c(C)c3oc(=O)cc(C)c3cc2c1CNCCCN [Compound 5, 4′-(5-amino-2-aza)pentyl-4,5′,8-trimethylpsoralen dihydrochloride]
HIV Log Kill 16 μM (cell-free virus (HIV); [4]): 0.9 log | HIV Log Kill 32 μM (cell-free virus (HIV); [4]): 1.3 log | HIV Log Kill 64 μM (cell-free virus (HIV); [4]): >2.6 log | R17 log kill 16 uM (R17 [2]; [5]): 5.6 log | R17 log kill 32 uM (R17 [2]; [5]): >6.1 log | R17 log kill 64 uM (R17 [2]; [5]): >6.1 log

Cc1oc2c(C)c3oc(=O)cc(C)c3cc2c1CCN [Compound 3, 4′-(2-aminoethyl)-4,5′,8-trimethylpsoralen Hydrochloride]
mutagenicity as defined by the Ames test [3]: no mutagenicity | HIV Log Kill 32 μM (cell-free virus (HIV); [4]): 2.7 log | HIV Log Kill 64 μM (cell-free virus (HIV); [4]): >3.8 log | HIV inactivation activity compared with AMT (cell-free virus (HIV)): significantly more active than AMT | R17 Log Kill 8 uM (R17 [2]; 8 uM, 1 minute irradiation): >6.2 log | R17 Log Kill 16 uM (R17 [2]; 1 minute irradiation): >6.2 log | R17 Log Kill 32 uM (R17 [2]; 1 minute irradiation): >6.2 log | R17 log kill 8 uM (R17 [2]; Table 6, 8 uM, 1 minute irradiation = 1.2 J/cm^2, starting titer approx. 7.1 logs): 5.6 log | R17 log kill 16 uM (R17 [2]; [5]): >6.1 log

Cc1oc2c(C)c3oc(=O)cc(C)c3cc2c1CNCCCNCCCN [Compound 12]
HIV Log Kill 16 μM (cell-free virus (HIV); [6]): 0.4 log | HIV Log Kill 32 μM (cell-free virus (HIV); [6]): 0.8 log | HIV Log Kill 64 μM (cell-free virus (HIV); [6]): 1.3 log | R17 inactivation compared with AMT (R17 [1]): more efficient at inactivating R17 than was AMT

Cc1oc2c(C)c3oc(=O)cc(C)c3cc2c1CNCCCOCCCCOCCN [Compound 9]
HIV Log Kill 16 μM (cell-free virus (HIV); [6]): 0.8 log | HIV Log Kill 32 μM (cell-free virus (HIV); [6]): 1.4 log | HIV Log Kill 64 μM (cell-free virus (HIV); [6]): 2.7 log

Cc1oc2c(C)c3oc(=O)cc(C)c3cc2c1COCCN [Compound 2, 4′-(4-Amino-2-oxa)butyl-4,5′,8-trimiethylpsoralen Hydrochloride]
HIV Log Kill 16 μM (cell-free virus (HIV); [4]): 1.4 log | HIV Log Kill 32 μM (cell-free virus (HIV); [4]): 3.8 log | HIV Log Kill 64 μM (cell-free virus (HIV); [4]): >4.5 log | HIV inactivation activity compared with AMT (cell-free virus (HIV)): significantly more active than AMT

Cc1oc2c(C)c3oc(=O)cc(C)c3cc2c1COCCOCCNCCCCN.Cl.Cl [Compound 8, 4′-(12-Amino-8-aza-2,5-dioxa)dodecyl-4,5′,8-trimethylpsoralen Dihydrochloride]
HIV Log Kill 16 μM (cell-free virus (HIV); [4]): 1.1 log | HIV Log Kill 32 μM (cell-free virus (HIV); [4]): 1.9 log | HIV Log Kill 64 μM (cell-free virus (HIV); [4]): 3.7 log

Cc1cc(=O)oc2c(C)c3oc(COCCN)c(C)c3cc12 [Compound 18]
HIV Log Kill 16 μM (cell-free virus (HIV); [6]): 1.0 log | HIV Log Kill 32 μM (cell-free virus (HIV); [6]): 1.0 log | HIV Log Kill 64 μM (cell-free virus (HIV); [6]): 3.1 log

Cc1oc2c(C)c3oc(=O)cc(C)c3cc2c1CNCCCCCN.Cl.Cl [Compound 10, 4′-(7-amino-2-aza)heptyl-4,5′,8-trimethylpsoralen dihydrochloride]
HIV Log Kill 16 μM (cell-free virus (HIV); [6]): 2.0 log | HIV Log Kill 32 μM (cell-free virus (HIV); [6]): >3.5 log | HIV Log Kill 64 μM (cell-free virus (HIV); [6]): >3.5 log | R17 inactivation compared with AMT (R17 [1]): more efficient at inactivating R17 than was AMT

Cc1cc(=O)oc2c(C)c3oc(CNCCCCN)c(C)c3cc12.Cl.Cl [Compound 17, 5′-(6-Amino-2-aza)hexyl-4,4′,8-trimethylpsoralen Dihydrochloride]
HIV Log Kill 16 μM (cell-free virus (HIV); [6]): 1.2 log | HIV Log Kill 64 μM (cell-free virus (HIV); [6]): 3.4 log | R17 inactivation compared with AMT (R17 [1]): more efficient at inactivating R17 than was AMT

Nc1c2ccccc2nc2ccccc12 [9-Aminoacridine, reference compound]
revertant colonies per plate, positive control (TA1537): 284

Cc1oc2c(C)c3oc(=O)cc(C)c3cc2c1COCCOCCN [Compound 7, 4′-(7-Amino-2,5-oxa)heptyl-4,5′,8-trimethylpsoralen Hydrochloride]
HIV Log Kill 16 μM (cell-free virus (HIV); [4]): 0.8 log | HIV Log Kill 32 μM (cell-free virus (HIV); [4]): 2.1 log | HIV Log Kill 64 μM (cell-free virus (HIV); [4]): 3.5 log | R17 log kill 16 uM (R17 [2]; [7]): >6 log | R17 log kill 32 uM (R17 [2]; [7]): >6 log | R17 log kill 64 uM (R17 [2]; [7]): >6 log

[N-]=[N+]=[N-] [sodium azide, reference compound]
revertant colonies per plate, positive control (TA100; TA100 −S9, 1.5 μg/plate): 965

Cc1oc2c(C)c3oc(=O)cc(C)c3cc2c1CNCCN [Compound 1, 4′-(4-amino-2-aza)butyl-4,5′,8-trimethylpsoralen dihydrochloride]
dose at which the only mutagenic response (weak frameshift mutagen) was detected (TA1538): 5 μg/plate | HIV Log Kill 64 μM (cell-free virus (HIV); [4]): 2.1 log | logs killed in the "dark" control (R17 [2]; Table 3, runs 1-3, at most): ≤ 0.1 logs | R17 inactivation efficiency compared with 8-MOP (R17 [2]; Table 4): much R17 inactivatiotn efficiency than does 8-MOP | R17 Log Kill 8 uM (R17 [2]; 8 uM, 1 minute irradiation): 1.7 log | R17 Log Kill 16 uM (R17 [2]; 1 minute irradiation): 2.8 log | R17 Log Kill 32 uM (R17 [2]; 1 minute irradiation): 5.3 log | LOG TITER (R17 [2]; experiment 1, 32 μM cmpd, 1′ uva, phage only 7.7): <1 log | LOG TITER (R17 [2]; experiment 1, 32 μM cmpd, 10′ uva, phage only 7.7): <1 log | LOG TITER (R17 [2]; experiment 1, compound only (32 μM), not irradiated, phage only 7.7): 7.6 log | LOG TITER (R17 [2]; experiment 2, 3.2 μM cmpd, 1′ uva, phage only 7.8): 6.9 log | LOG TITER (R17 [2]; experiment 2, 3.2 μM cmpd, 10′ uva, phage only 7.8): 6.1 log | LOG TITER (R17 [2]; experiment 2, compound only (3.2 μM), not irradiated, phage only 7.8): 7.7 log | LOG TITER (R17 [2]; experiment 3, 4 μM cmpd, 1′ uva, phage only 7.3): 6.3 log | LOG TITER (R17 [2]; experiment 3, 8 μM cmpd, 1′ uva, phage only 7.3): 5.6 log | LOG TITER (R17 [2]; experiment 3, 16 μM cmpd, 1′ uva, phage only 7.3): 3.9 log | LOG TITER (R17 [2]; experiment 3, compound only (16 μM), not irradiated, phage only 7.3): 7.3 log | mutation in the TA100 strain (TA100; TA100, with and without S9): only in the absence of S9
